{"source": "patent US20100305207A1", "about": "“GLYCOGEN PHOSPHORYLASE INHIBITOR COMPOUND AND PHARMACEUTICAL COMPOSITION THEREOF” (priority 2007, published 2010)", "key": {"[1]": {"molecular_target": "T1, human liver glycogen phosphorylase a (HLGPa) (Homo sapiens, UniProt P06737)", "T1 construct": "creating a full-length cDNA fused at the 5′ end to codons for methionine-glycine-alanine-histidine; 6x histidine tag (leader Met-Gly-Ala-His6-Gly-Gly) (N); Tev protease cleavage site (Glu-Asn-Leu-Tyr-Phe-Gln-Gly-Gly) (N); made in house; host or cells: E. coli (bacterial expression plasmid pTXK1007LTev)", "T1 sequence (P06737 2-847)": "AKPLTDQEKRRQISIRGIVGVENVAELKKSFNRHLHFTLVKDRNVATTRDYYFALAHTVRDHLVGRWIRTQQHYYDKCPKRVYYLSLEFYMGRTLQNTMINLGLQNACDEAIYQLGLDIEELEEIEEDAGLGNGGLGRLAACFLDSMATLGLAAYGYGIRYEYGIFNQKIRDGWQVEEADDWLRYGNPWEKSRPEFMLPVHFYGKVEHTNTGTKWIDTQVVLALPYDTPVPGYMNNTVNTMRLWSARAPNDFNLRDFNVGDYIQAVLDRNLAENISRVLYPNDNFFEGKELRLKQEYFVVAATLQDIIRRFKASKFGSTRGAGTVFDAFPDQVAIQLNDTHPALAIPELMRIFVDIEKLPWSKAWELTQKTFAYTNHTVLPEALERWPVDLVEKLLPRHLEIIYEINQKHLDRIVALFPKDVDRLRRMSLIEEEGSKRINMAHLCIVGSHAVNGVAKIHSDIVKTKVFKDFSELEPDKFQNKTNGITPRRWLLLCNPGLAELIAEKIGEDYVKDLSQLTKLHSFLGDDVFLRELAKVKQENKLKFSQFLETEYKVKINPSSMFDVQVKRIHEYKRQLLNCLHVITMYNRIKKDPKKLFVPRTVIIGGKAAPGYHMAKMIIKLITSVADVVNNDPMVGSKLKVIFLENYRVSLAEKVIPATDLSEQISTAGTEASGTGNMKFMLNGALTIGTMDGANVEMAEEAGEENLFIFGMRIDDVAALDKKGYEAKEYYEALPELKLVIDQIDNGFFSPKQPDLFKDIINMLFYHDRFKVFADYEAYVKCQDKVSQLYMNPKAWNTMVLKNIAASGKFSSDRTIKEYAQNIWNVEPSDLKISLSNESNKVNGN", "assay": "Human liver glycogen phosphorylase a enzymatic activity assay", "assay_type": "biochemical", "details": "15 nM HLGPa, coupled resorufin fluorescence readout, 15 min preincubation; assay run with and without 10 mM glucose, not stated which applies", "from_the_text": "The purified glycogen phosphorylase (GP) enzyme, wherein glycogen phosphorylase is in the activated “a” state, referred to as human liver glycogen phosphorylase a (HLGPa), can be obtained according to the following procedures.\nHuman liver glycogen phosphorylase cDNA was amplified by polymerase chain reaction (PCR) from a commercially available human liver cDNA library (BD Biosciences). The cDNA was amplified as 2 overlapping fragments using the primers 5′[…]3′ with 5′[…]3′ and 5′[…]3′ with 5′[…]3′. PCR conditions were 94° C. 1 min., 55° C. 1 min., 72° C. 2 min. for 40 cycles using the enzyme Pfu Turbo (Stratagene), 0.5% DMSO, 250 uM each nucleotide triphosphate, and 0.4 uM each primer plus the buffer recommended by the polymerase manufacturer. Each PCR fragment was molecularly cloned and the DNA sequence of each insert was determined. […] The DNA sequence of both strands of the cDNA in pTXK1007LTev was determined. […]\nFrozen purified glycogen phosphorylase (HLGPb) was thawed in at 4° C. then dialyzed overnight into 50 mM HEPES, 100 mM NaCl, pH 7.4. […] The degree of phosphorylation was monitored by following the increase in activity at 10 minute intervals using the assay system outlined below. […]"}, "male CD rats": {"test_system": "male CD rats", "assay": "In vivo glucagon challenge model", "set-up": "species or system rat", "details": "glucagon 10 ug/kg + Sandostatin 0.5 mg/kg i.v. 2 hr after dosing, serum glucose 0-20 min", "experimental": "Jugular vein cannulated male CD rats (220-260 g) (Charles Rivers, Raleigh, N.C.) were received 1-2 days after cannulation, housed individually on Alpha-dri™ bedding (Shepherd Specialty Papers, Inc., Kalamazoo, Mich.) with free access to food (Lab Diet 5001, PMI Nutrition International, Brentwood, Mo.) and water and maintained on a 12 h light/dark cycle at 21° C. and 50% relative humidity for 3-4 days prior to the glucagon challenge studies. On the day of the study, the rats were sorted by body weight into treatment groups (N=4-5) and housed individually in shoe box cages with clean Alpha-dri bedding. The cannula lines were opened by removal of 0.2 ml blood and flushed with 0.2 ml sterile saline. After a one hour acclimation, blood samples were collected to determine basal glucose and the rats were orally dosed with vehicle (5% DMSO: 30% Solutol HS15: 20% PEG400: 45% 25 mM N-methylglucamine) or drug (5 ml/kg). Two hr after drug dosing, a time zero blood sample (0.4 ml) was collected for determination of glucose and the rats were dosed through the jugular vein with Sandostatin, 0.5 mg/kg, (Novartis Pharmaceuticals Corp., East Hanover, N.J.) and glucagon, 10 ug/kg (Bedford Laboratories, Bedford, Ohio). Blood samples were collected after 10 and 20 min for glucose determination. Whole blood was placed in a Terumo Capiject blood collection tube (Terumo Medical Corp., Elkton, Md.), allowed to sit at room temperature for 20-30 minutes and then centrifuged (3,000×G) to obtain serum. Serum levels of glucose were determined using an Olympus AU640™ clinical chemistry immuno-analyzer (Olympus America Inc., Melville, N.Y.). The % reduction (% R) of the vehicle glucose AUC was calculated for each drug treatment using the formula % reduction=100*1−(AUC drug/AUC vehicle), where AUG was calculated from serum glucose values using the equation AUG=(T0+T10)/2*10+(T10+T20)/2*10−(T0*20)."}}, "data": [{"smiles": "COCCOc1ccc(C(=O)N[C@H](C(=O)O)[C@@H](C)OC(C)(C)C)c(NC(=O)Nc2c(C)cc(CC3CC3)cc2C)c1", "note": "[Example 1, N-[(2-[({[4-(Cyclopropylmethyl)-2,6-dimethylphenyl]amino}carbonyl)amino]-4-{[2-(methyloxy)ethyl]oxy}phenyl)carbonyl]-O-(1,1-dimethylethyl)-L-threonine]", "values": [{"measurement": "IC50", "setting": "[1]", "value": 4, "unit": "nM"}, {"measurement": "% R (% reduction of the vehicle glucose AUC)", "setting": "male CD rats; 0.1 mg/kg oral", "value": 4, "unit": "%"}, {"measurement": "% R (% reduction of the vehicle glucose AUC)", "setting": "male CD rats; 0.5 mg/kg oral", "value": 36, "unit": "%"}, {"measurement": "% R (% reduction of the vehicle glucose AUC)", "setting": "male CD rats; 2 mg/kg oral", "value": 48, "unit": "%"}, {"measurement": "% R (% reduction of the vehicle glucose AUC)", "setting": "male CD rats; 5 mg/kg oral", "value": 76, "unit": "%"}]}]}
